This note sets out measurements from patent publication US20050020565A1, “CCK-1 receptor modulators” (priority 2003, published 2005).

The structures appear in SMILES notation. pKi: −log10 of the molar value.

Tested on in one data set: not given
Test: not given
Conditions: not given
In turn, `COc1ccc(-n2nc(C[C@H](C(=O)[O-])c3cccc(C)c3)cc2-c2ccc(Cl)c(Cl)c2)cc1.[Na+]` (stereo in doubt) [Example 1] registered a melting point of 295.5 to 297.5 °C. Still for that read-out and setting: the result for `COc1ccc(-n2nc(C[C@H](C(=O)[O-])c3cccc(C)c3)cc2-c2ccc(Cl)c(Cl)c2)cc1.[Na+]` (stereo in doubt) [Example 505] reads 280 to 285 °C; that for `CON(C)C(=O)c1ccc(Cl)c(Cl)c1` [Example 511, 3,4-Dichloro-N-methoxy-N-methyl-benzamide], 39.5 to 43.2 °C.

Another data set deals with T1, CCK-1 receptor (Homo sapiens, UniProt P32238).
T1 construct: expressed in transfected cells; membranes
T1 sequence (P32238 1-428): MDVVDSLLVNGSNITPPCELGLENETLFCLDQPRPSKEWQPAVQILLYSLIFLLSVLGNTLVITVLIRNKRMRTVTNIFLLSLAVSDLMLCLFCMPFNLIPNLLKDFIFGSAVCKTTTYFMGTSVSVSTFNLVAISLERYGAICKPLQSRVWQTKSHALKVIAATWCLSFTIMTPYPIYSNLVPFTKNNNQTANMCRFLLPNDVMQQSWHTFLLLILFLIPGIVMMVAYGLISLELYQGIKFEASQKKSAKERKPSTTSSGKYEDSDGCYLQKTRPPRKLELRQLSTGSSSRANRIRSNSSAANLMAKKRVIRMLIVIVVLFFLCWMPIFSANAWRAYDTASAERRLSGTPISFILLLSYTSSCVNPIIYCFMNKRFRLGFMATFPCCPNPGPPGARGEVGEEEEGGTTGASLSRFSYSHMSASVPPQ
Kind of data set: CCK-1 receptor radioligand binding assay ([125I]-BH-CCK-8S displacement, membranes of stably transfected CHO-K1 cells). The note with it: membranes of CHO-K1 cells stably transfected with CCK-1 receptor, 0.3 μM PD-134,308 present. How it is done: CHO-K1 cells that had undergone-stable transfection with the CCK-1 receptor were grown in DMEM supplemented with L-glutamine (2 mM), penicillin (50 units/mL) and streptomycin (50 μg/mL). Cells were cultured under continuous G418 selection (2 mM) and were harvested using a rubber cell scraper. CHO-K1 cells were sub-cultured a maximum of ten times before being reseeded from the original stocks.
Membranes were prepared from the stably transfected CHO-K1 cells. Frozen cell pellets (−40° C.) were thawed in 14 mL of buffer A (10 mM HEPES, 130 mM NaCl, 4.7 mM KCl, 5 mM MgCl, 1 mM EGTA and 15.4 mg/100 mL bacitracin at pH 7.2), adapted from Harper et al. (Br. J. Pharmacol. (1996) 118, pp 1717-1726). The thawed pellets were homogenized using a Polytron PT-10 (7×1 s). The homogenates were centrifuged for 5 min at 1500 rpm (600×g), and the resulting pellets were discarded. The supernatants were re-centrifuged in order to collect the receptor-membrane pellets (25 min 15,000 rpm; 39,800×g), which were re-suspended in buffer A.
All assays were conducted in 96-well plates (GF/B millipore filter plates) using buffer A, with 0.3 μM PD-134,308, for the dilutions. The CCK-2 receptor ligand was included to eliminate the contribution of this receptor subtype to the binding. For the optimal cell number determination experiments 20 pM [1251]-BH—CCK-8S (50 μL 60 pM solution) was incubated with a range of cell concentrations (2.5×105 to 12.5×10^5 cells/well) in a total volume of 150 μL. Total binding of [1251]-BH—CCK-8S was determined in the presence of 15 μL of buffer A. Non-specific binding of [1 251]-BH—CCK-8S was determined in the presence of 15 μL of 100 μM 2-naphthalenesulphonyl L-aspartyl-(2-phenethyl)amide (2-NAP: see R. A. Hull et al., Br. J. Pharmacol. (1993) 108, pp 734-740), a CCK-1 receptor selective antagonist that is structurally unrelated to the radioligand [1251]-BH—CCK-8S. The assay preparation was incubated for 1 h at 21±3° C., and then the assay was terminated upon rapid filtration of the preparation under reduced pressure. The loaded filters were washed three times using undiluted PBS (100 μL), and then the residues were transferred to 5 mL scintillation tubes. Bound radioactivity was determined using a gamma counter (count time=1 min). From these experiments a cell concentration of 1 pellet in 40 mL of buffer (2.5×10^6 cells/mL) was chosen for use in other assays (below). To validate the radioligand concentration and incubation time for the assay, saturation and kinetic binding studies were also conducted (see M. F. Morton, The Pharmacological Characterization of Cholecystokinin Receptors in the Human Gastrointestinal Tract. PhD Thesis, University of London, 2000). The affinity of novel compounds was estimated by incubating membrane preparations with 15 μL of competing ligand (0.1 pM-1 mM) for 60 min at 21±3° C. The assay was then terminated according to the procedure outlined above.
The pKi values were determined using the equation of Cheng and Prusoff (Biochem. Pharmacol. (1973) 22, pp 3099-3108): [formula]
To circumvent problems associated with computer-assisted data analysis of compounds with low affinity, the data obtained in the current study were weighted according to a method described by Morton (2000). In brief, 100% and 0% specific binding were defined independently using total binding and binding obtained in the presence of a high concentration of the reference antagonist, 2-NAP.
`Cc1cccc(C(Cc2cc(-c3ccc(Br)c(C)c3)n(C3CCCCC3)n2)C(=O)O)c1` (stereo not drawn) [Example 308] gave a negative-log Ki (pKi) of 7.20. With `COc1cccc2cc(-c3cc(CC(C(=O)O)c4cccc(C)c4)nn3-c3ccc(C)cc3)oc12` (stereo not drawn) [Example 311], the negative logarithm of the Ki (pKi) is 7.70. This pKi lies 0.50 log units higher than the previous one. Still for that read-out and setting: for `Cc1cccc(C(Cc2cc(-c3ccc4c(c3)OCO4)n(Cc3ccccc3)n2)C(=O)O)c1` (stereo not drawn) [Example 322] the value was 7.40; for `Cc1cccc([C@H](Cc2cc(-c3ccc(Cl)c(Cl)c3)n(-c3ccc(O)cc3)n2)C(=O)O)c1` [Example 328], 7.70; for `COc1ccc(-n2nc(CC(C(=O)O)c3cccc(SC(F)(F)F)c3)cc2-c2ccc(Cl)c(Cl)c2)cc1` (stereo not drawn) [Example 334], 7.00.

As for `Cc1ccc(-c2cc(CC(CSc3ncn[nH]3)c3cccc(C)c3)nn2-c2ccc(C)cc2)cc1` (stereo not drawn) [Example 335], the negative-log Ki (pKi) is 7.50. The same measure, in the same setting: the result for `Cc1ccc(-n2nc(CC(C(=O)O)c3cccc(C)c3)cc2-c2ccc(N3CCCCC3)cc2)cc1` (stereo not drawn) [Example 349] reads 7.10; that for `Cc1ccc(-n2nc(CC(C(=O)O)c3cccc(C)c3)cc2-c2ccc(N3CCCC3)cc2)cc1` (stereo not drawn) [Example 352], 7.50; that for `COc1ccc(-n2nc(/C=C(/C(=O)O)c3ccc(C)cc3)cc2-c2ccc(Cl)c(Cl)c2)cc1` [Example 363], 6.10.
